# “Also recorded” adds a separate entry of the source. No end group written: not given here. mPEG‑maleimide = methoxy-PEG maleimide (couples to the cysteine thiol)
# B1: native IGFBP-2: native (wild type) insulin-like growth factor binding protein-2; FIG. 2 legend says wild type bovine IGFBP-2 (protein, UniProt P13384 34-317, looked up)
# Insulin-like growth …: EVLFRCPPCTPESLAACKPPPGAAAGPAGDARVPCELVREPGCGCCSVCARLEGERCGVYTPRCGQGLRCYPNPGSELPLRALVHGEGTCEKHGDAEYSASPEQVADNGEEHSEGGLVENHVDGNVNLMGGGGGAGRKPLKSGMKELAVFREKVTEQHRQMGKGGKHHLGLEEPKKLRPPPARTPCQQELDQVLERISTMRLPDERGPLEHLYSLHIPNCDKHGLYNLKQCKMSLNGQRGECWCVNPNTGKLIQGAPTIRGDPECHLFYNEQQGARGVHTQRMQ
# Experiments:
# [1] = test system: primary preadipocytes from IGFBP-2−/− mice; test: Differentiation of primary preadipocytes (immunoblot of adiponectin, aP2, PPARγ; Oil Red O staining); assay type: cell-based, mouse; conditions: for effect on differentiation marker expression / preadipocyte differentiation (in words): peptides 6 μg/ml, IGFBP-2 proteins 3 μg/ml, IGF-I 100 ng/ml, in differentiation medium; for % suppression of adiponectin: mean±SE, N=3; for relative potency as inhibitor of adipogenesis / preadipocyte differentiation (in words): comparison between peptides and proteins, immunoblot and Oil Red O
# Method: Primary preadipocytes were isolated from epididymal fat pads of 6 week old IGFBP-2^−/− mice. The cells were cultured using a previously described method (Boney, C M et al., 1994). The fat pads were weighed and the tissue was digested with an equal volume (W/V) of collagenase type A (Roche Applied Science, Indianapolis, Ind.) in HEPES buffer (0.1M and 1.5% BSA) for 45 min at 37° C. Following complete digestion, the preadipocytes were separated from the stromal vascular cells by centrifugation at 500×g for 5 min. The pelleted cells were washed with DMEM containing 30 mM glucose (Gibco, Grand Island, N.Y.) and passed through a 100 μm mesh filter (BD Biosciences, Bedford, Mass.). The cells were then plated in 6-well plates (Falcon Corp., Franklin Lakes, N.J.) at a density of 1.2-1.5×10^4 cells/ml in DMEM containing 30 mM glucose supplemented with penicillin (100 U/ml), streptomycin (100 μg/ml), and 10% fetal bovine serum hereafter referred to as standard medium. The cultures had the medium changed every 2 days until they reached confluency. Two day post-confluent cells were then exposed to differentiation medium (serum free DMEM containing 0.5 mM IBMX, 1 μM dexamethasone, and 5 μg/mL insulin) and incubated for 2 days. Experimental treatments that were added to this medium included either wild type IGFBP-2 (3 μg/ml), HBD1 peptide (6 μg/ml), HBD1 control peptide (6 μg/ml), HBD2 peptide (6 μg/ml), HBD2 control peptide (6 μg/ml), HBD1 mutant IGFBP-2 (3 μg/ml) or the HBD2 mutant IGFBP-2 (3 μg/ml). Cultures were maintained for two additional days in the standard medium supplemented with 5 μg/ml insulin. Thereafter, the cultures were kept in the fresh standard medium without insulin for additional two days.
# After treatment, the cells were rinsed with PBS for two times and fixed with 10% formalin for 30 min at room temperature. After rinsing with distilled water for twice, 100% propylene glycol (Poly Scientific, Bay Shore, N.Y.) was added and incubated for 5 min. Before adding Oil Red O solution (Poly Scientific, Bay Shore, N.Y.), propylene glycol was removed. The cultures were incubated for 10 min at 60° C. Removing Oil Red O solution, the cultures were incubated with 80% propylene glycol for 5 min, After incubation, the cultures were rinsed with tap water twice. Images were captured using an Olympus IX81 inverted microscope.
# Differentiated adipocytes were lysed in ice-cold lysis buffer (Xi et al., 2008). After centrifugation at 14,000×g for 10 min, solubilized proteins were quantified by the Bradford method (Thermo Scientific, Rockford, Ill.). Equal protein amounts of lysates were loaded onto a SDS-polyacrylamide gel and the proteins were separated, then transferred to an Immobilon filter and visualized by immunoblotting using the appropriate antibody. The primary antibody dilutions that were used were 1:1000 for the anti-adiponectin antibody (Affinity BioReagents, Golden, Colo.), 1:500 for the anti-PPARγ antibody (Cell Signaling Technology Inc., Beverly, Mass.), 1:2000 for the anti-apt antibody (ProSci Inc., Poway, Calif.) and 1:5000 for the anti-β-actin antibody (Sigma Chemical Company, St. Louis, Mo.). The immune complexes were visualized using enhanced chemiluminescence (Thermo Fischer Scientific, Rockford, Ill.).
# Preadipocytes were prepared from mice and grown in culture as described herein. The respective mouse and human peptides were added to cells and the cells were lysed and the lysates were run on SDS gels as described. Immunoblotting for adiponectin was carried as described. Three concentrations of each peptide, 0.7, 2.0 and 6.0 μg/ml, were compared. The results were expressed as % suppression mean±SE(N=3) and were as follows.
# Cell culture of primary preadipocytes. Preadipocytes were isolated from epididymal fat pads of IGFBP-2^−/− mice. The cultures had the medium changed every 2 days until they reached confluency. […]
# [2] = test system: IGFBP-2−/− mice; test: Body composition (fat and lean mass) by EchoMRI at weeks 0 and 12; assay type: in vivo, mouse; conditions: weeks 0 to 12; pegylated peptide 50 μg IP 3 times/week; mean±SE
# Method: (§1) Body fat and lean muscle mass was measured at weeks 0 and 12 of treatment by magnetic resonance imaging analysis (EchoMRI-100, Echo Medical Systems, Houston, Tex.), a technique that measures fat mass and lean mass in unanesthetized animals (Kelly S A, et. al., 2010). After completion of 12 weeks of treatment, the mice were sacrificed. Blood was collected by cardiac puncture and allowed to sit for 4 hours before centrifuging at 3500 rpm×15 min. The serum was aspirated and stored at −20° C. until analysis. Abdominal inguinal and visceral fat pads were carefully dissected from each animal according to defined anatomical landmarks. All subcutaneous fat between the lower part of the rib cage and the upper thigh was considered abdominal subcutaneous inguinal fat, whereas all fat found along the mesentery starting at the lesser curvature of the stomach and ending at the sigmoid colon was considered visceral fat. Fat depots were blotted dry prior to weighing. The right inguinal fat pad was dissected separately and the triglyceride content of this tissue was determined by a colorimetric analysis (Pointe Scientific, Canton, Mich.), as previously described (Dann H, Kimura S 1992). Serum adiponectin and leptin were measured by ELISA following manufacturer's instructions (Millipore, Billerica, Mass.).
# (§2) Body composition and serum adipokine measurement. Body fat and lean mass were measured at weeks 0 and 12 of treatment by magnetic resonance imaging analysis (EchoMRI-100, Echo Medical Systems, Houston, Tex.), using unanesthetized animals. After 12 weeks of treatment, the mice were sacrificed and blood was collected by cardiac puncture and centrifuged at 3500 rpm×15 min. The serum was stored at −20° C. Abdominal inguinal and visceral fat pads were dissected from each animal according to defined anatomical landmarks. Subcutaneous fat between the rib cage and the upper thigh was termed subcutaneous inguinal fat, whereas all fat from the lesser curvature of the stomach to the sigmoid colon was termed visceral fat. Fat depots were blotted dry prior to weighing. The right inguinal fat pad was dissected separately and the triglyceride content of this tissue was determined by a calorimetric analysis (Pointe Scientific, Canton, Mich. Serum adiponectin and leptin were measured by ELISA following manufacturer's instructions (Millipore, Billerica, Mass.).
# [3] = test system: IGFBP-2−/− mice; test: Inguinal and visceral fat pad, liver and heart weights at sacrifice; assay type: in vivo, mouse; conditions: after 12 weeks; pegylated peptide 50 μg IP 3 times/week; mean±SE
# Method: as §1, §2
# [4] = test system: ovariectomized C57B6 normal mice (IGFBP-2 +/+); test: Body composition MRI analysis in ovariectomized genetically normal mice; assay type: in vivo, mouse; conditions: for Fat / Body weight: 2.5 mg/kg
# Method: Experiments were conducted in which the HBD-2 peptide was administered to genetically normal, ovariectomized mice to determine if it would induce fat loss. The purpose of this experiment was to determine if the peptide could alter fat mass in ovariectomized mice. Estrogen deficient mice are known to gain fat mass following removal of the ovaries. Since the peptide had not been tested in an animal model that had not been genetically manipulated and since it had not been tested in a condition wherein fat mass had been acquired previously to determine if it could reduce pre-existing fat mass this experiment was undertaken. The experimental design was as follows.
# (§3) There were 8 mice in each treatment group. C57B6 normal mice underwent ovaryectomy at age 8 weeks. They were then maintained on a normal Chow diet (6% fat) for three weeks. At that time they were treated with 2.5 mg/kg of the active peptide injected subcutaneously two days per week for four weeks. The peptide is the pegylated HBD-2 peptide described herein,
# (§4) A second treatment group that had also undergone ovariectomy was treated with the identical concentration of a control peptide that contained the same amino acids but in a scrambled order. A third group underwent sham surgery wherein an incision was made and then closed and the ovaries were not removed. For comparison the response of mice that had had the IGF BP-2 gene deleted were treated in the same manner.
# (§5) Eight mice underwent and were treated with the active peptide for four weeks as described for the normal animals. Eight additional mice received the control peptide and eight mice received the sham procedure. The animals were weighed weekly. After 4 weeks they underwent MRI analysis to determine body composition. Both lean mass and fat mass were quantified and the percent fat as a percent total body weight was determined mathematically.
# [5] = test system: ovariectomized IGFBP-2 −/− mice; test: Body composition MRI analysis in ovariectomized IGFBP-2 knockout mice; assay type: in vivo, mouse; conditions: IGFBP-2 −/− OVX mice, 2.5 mg/kg sc two days per week for four weeks; for Fat: 2.5 mg/kg
# Method: as §3, §4, §5
# [6] = IGFBP-2 +/+ OVX mice, 2.5 mg/kg sc two days per week for four weeks, MRI
molecule,measurement,setting,value
"CKPLRLSKEEHPLK [HBD1 control peptide, scrambled HBD1 peptide, reference compound]",effect on differentiation marker expression / preadipocyte differentiation (in words),[1],had no effect
IGF-I: insulin-like growth factor-I added at 100 ng/ml to differentiation medium [reference compound],effect on differentiation marker expression / preadipocyte differentiation (in words),[1],no additional effect on cell differentiation
"KHGRYNLKQCKMSLNGQR [Mouse, mouse IGFBP-2 HBD2 peptide]",% suppression of adiponectin,[1]; 0.7 μg/ml peptide,51.2 ± 8.1%
same,% suppression of adiponectin,[1]; 2.0 μg/ml peptide,85.6 ± 11.4%
same,% suppression of adiponectin,[1]; 6.0 μg/ml peptide,95.5 ± 9.9%
same,relative potency as inhibitor of adipogenesis / preadipocyte differentiation (in words),[1],equipotent
"Peg HBD2: HBD2 peptide with added cysteine (CKHGLYNLKQCKMSLNGQR), pegylated with methoxy PEG maleimide (C(mPEG‑maleimide)KHGLYNLKQCKMSLNGQR)",Fat mass increase,[2],0.58 ± 0.12 g
same,Lean mass increase,[2],3.10 ± 0.57 g
same,Inguinal fat,[3],0.23 ± 0.02 g
same,Visceral fat,[3],0.25 ± 0.02 g
same,Fat %,[4]; [6],19.42 ± 1.1%
same,Lean,[4]; [6],17.40 ± 0.3 g
same,Total,[4]; [6],21.65 ± 0.6 g
same,Fat,"[4]; IGFBP-2 +/+ OVX mice, 2.5 mg/kg sc two days per week for four weeks, MRI, listed as HBD",4.0 ± 0.4 g
same,Fat,"[4]; IGFBP-2 +/+ OVX mice, 2.5 mg/kg sc two days per week for four weeks, MRI, listed as active peptide",4.0 g
same,Body weight,"[4]; IGFBP-2 +/+ OVX mice, 2.5 mg/kg sc two days per week for four weeks, listed as HBD",23.0 ± 0.8 g
same,Body weight,"[4]; IGFBP-2 +/+ OVX mice, 2.5 mg/kg sc two days per week for four weeks, listed as active peptide",23.0 g
same,body weight and total fat mass (in words),"[4]; OVX mice, after four weeks of treatment",significantly decreased
same,Body weight,[5],21.95 ± 0.8 g
same,Fat %,[5]; MRI,18.75 ± 1.0%
same,Lean,[5]; MRI,16.97 ± 0.4 g
same,Total,[5]; MRI,20.90 ± 0.8 g
same,Fat,[5]; MRI,3.85 g
same,Fat,"[5]; MRI, listed as HBD(pept)",3.85 ± 0.4 g
"RKGFYKRKQCKPSRGRKR [HBD2 control peptide, reference compound]",effect on differentiation marker expression / preadipocyte differentiation (in words),[1],did not affect their expression; also recorded: did not alter their expression
B1,relative potency as inhibitor of adipogenesis / preadipocyte differentiation (in words),[1],most potent inhibitors of adipogenesis
same,effect on differentiation marker expression / preadipocyte differentiation (in words),[1],inhibited preadipocyte differentiation into mature adipocytes

# Source: US20160039897A1, “COMPOUNDS AND METHODS FOR TREATING OBESITY AND CONTROLLING WEIGHT” (THE UNIVERSITY OF NORTH CAROLINA AT CHAPEL HILL, priority 2013, published 2016)
